The values below come from patent US4264577A, “Contraceptive methods and compositions” (Eli Lilly and Company, priority 1980, dated 1981).

“And” between values parts separate entries of the source, which are not always exact repeats. Equal entries are not always repeated.

As usually defined, the LD50 is the dose expected to kill half of the subjects tested.

One data set relates to mice. The settings on record: I.P. (mice); cited from earlier work.
Data set [1] deals with T1, Acrosin (purified from boar sperm) (Sus scrofa, UniProt P08001).
T1 construct: purified from boar sperm; from tissue; host or cells: boar sperm
Put plainly: Acrosin inhibition in vitro (BAPNA substrate). Format: biochemical. The following applies: sodium salts. As for the experimental part:
A control using the buffer solution without the test compound added is also run. A 200 μl-sample of the incubation mixture is then withdrawn and is added to a cuvette containing BAPNA (1 ml.) and triethanolamine buffer (2 ml.). The mixture is stirred and placed in a Gilford recording spectrophotometer. The increase in optical density at 383 nm is measured. One unit of acrosin activity is defined as the amount of acrosin which will cause an increase in optical density at 383 nm. of 0.001/minute. One unit of inhibitory activity is defined as the amount of inhibitor which will cause a reduction in the increase in optical density at 383 nm. of 0.001/minute.

Data set [2] relates to cumulus oophorus of rabbit ova. Briefly: Removal of cumulus oophorus from ova by hyaluronidase, in vitro. The class given is cell-based. The settings on record: 10 μl. of 10 mg./ml. solution in 1 ml medium, 37° C.; sulfate. Here is the method: In the absence of sodium n-tetradecyl sulfate, complete removal of the cumulus oophorus and zona pellucida is observed.
Female rabbits are given 100 units of pregnant mares serum (PMS), IM, and 134 units of HCG, IV. After 13 hours the animals are sacrificed, and the ovaries are excised. The ovaries are submerged in calcium-free Ringer's solution containing 20% rabbit serum which had been heated to 55° C. for 20 minutes. Ova with cumulus intact are removed and placed in calcium-free Ringer's solution for incubation at 37° C. Hyaluronidase (10 μl.) of a 10 mg./ml. solution in calcium-free Ringer's solution is added to 20 ova in 1 ml. of the incubation medium. To 10 ova in the same medium is added 10 μl. of a solution of sodium n-tetradecyl sulfate (10 mg./ml.) in calcium-free Ringer's solution. To 10 other ova in the same media is added 10 μl. of calcium-free Ringer's solution as control. The mixtures are incubated at 37° C., and the cumulus oophorus is examined at 15 minute intervals with an American Optical stereomicroscope. In the absence of sodium tetradecyl sulfate, the cumulus oophorus is completely removed.

For data set [3], the system named is Dutch belted virgin rabbits. Put plainly: Antifertility effect by intrauterine administration (medicated rubber rod in uterine horn). The following applies: 40-mg rod, 10% W/W, in right uterine horn; 8 uterine horns; 14 days after breeding. Format: in vivo, rabbit. As for the experimental part:
Dutch belted virgin rabbits, each weighing 3-4 pounds, are randomly selected and anesthetized with sodium pentobarbital ([…].) administered by IV drip. The uterus of each animal is exposed and a 40-mg. sample in the shape of a rod (3 mm. in diameter) of dimethylpolysiloxane rubber (as prepared in Example 3, Method A) containing 10% W/W of sodium tetradecyl sulfate is sutured into the right uterine horn at a random location in between the cervix and the uterotubal junction. The left horn is left untreated to serve as control. The rubber rod is placed into the uterine horn by passing a curved needle through it and through the uterine wall pulling the rod into the uterine lumen. The entry is closed by suturing. Animals (blank) are similarly treated using unmedicated dimethylpolysiloxane rubber to serve as a second group of controls. The animals are given 300,000 units of Duracillin®) per day (in four doses) and are allowed to recover for 14 days. Each animal is bred to a male of proven fertility and is immediately given a dose (IV) of appropoximately 100 units of human chorionic gonadotropin (HCG) to facilitate ovulation. Fourteen days after breeding, the animal are sacrificed by cervical dislocation and the uterine horns are examined for implanted embryos. The number of embryos per uterine horn are recorded. […]

Data set [4] deals with female Dutch belted rabbits. Briefly: Efficacy of a vaginal suppository in female rabbits. Format: in vivo, rabbit. The following applies: 100 mg. PEG suppository with 1 mg. compound, 15 minutes before breeding; 6 animals; after 12 days. Here is the method:
Suppositories weighing 100 mg. are made to contain 1 mg. of sodium n-tetradecyl sulfate in a vehicle consisting of 35% polyethylene glycol 400, 35% polyethylene glycol 1540, and 30% polyethylene glycol 4000. A suppository is placed in the vagina of each of six female Dutch belted rabbits. After 15 minutes, each rabbit is bred to a buck of proven fertility and is injected with 100 I.U. of human chorionic gonadotropin. Each of six control animals are similarly treated using identical 100 mg. suppositories made from the same vehicle without the active compound. The animals are sacrificed after 12 days and are examined for embryos.

In a further data set the test system is rats. The following applies: orally (rats); cited from earlier work.
For a further data set, the system named is sperm. Briefly: Standard in vitro spermicidal tests (kill or immobilize sperm). Format: cell-based. The settings on record: standard in vitro tests: ability to kill or immobilize sperm. The source says: The alkyl or alkenyl sulfate salts have surface-active properties, and the sodium salts of dodecyl sulfate (lauryl sulfate), tetradecyl sulfate (myristyl sulfate), and hexadecyl sulfate (cetyl sulfate) are particularly useful surfactants for many applications. Sodium lauryl sulfate, for example, is widely used in topical creams, lotions and other preparations used for pharmaceutical or cosmetic purposes. A mixture of sodium lauryl sulfate and sodium myristyl sulfate is used commercially as a wetting agent, primarily in the paper industry. It is well known that surfactants may denature proteins when present in aqueous solutions in sufficient concentrations because the surface activity may affect peptide conformation.

For another data set, the system named is female rabbits. Put plainly: Drug release rate and efficacy in vivo, intravaginal medicated rubber rings. Further details: species or system rabbit. The following applies: vaginal ring 500 mg, 20% W/W; for Amount of sodium n-tetradecyl sulfate released. (μg. per day): per animal; for No. of Embryos (per animal): sulfate. Here is the method: Dimethylpolysiloxane rods (4 mm. diameter) weighing 500 mg. and containing 20% (W/W) sodium n-tetradecyl sulfate (prepared by Example 3, Method B, lot no. 225-3) are formed into a circle of approximately 20 mm. diameter. The rings are inserted into the vagina of female rabbits and are held in place by sutures. The rabbits are bred either 7 or 32 days after insertion of the rings. Eleven days after breeding, the animals are sacrificed and the genital system examined for pregnancy. The rings are removed, washed, and extracted with methanol (24 hour continuous,) to remove the remaining sodium n-tetradecyl sulfate. The amount of active compound is determined by the methylene blue method, as described in Part A, above. The amount of sodium n-tetradecyl sulfate remaining in the circular rod is subtracted from the original amount present, and the difference is assumed to be the amount released over the time period.

The test system of a further data set is rabbits. Briefly: Efficacy in vivo, rods sutured into both uterine horns, bred weekly. The following applies: five rabbits, rods 20% (W/W) in both uterine horns, bred weekly for 225 days. Further details: species or system rabbit. The text has this: (b) Five rabbits having rods containing 20% (W/W) sodium tetradecyl
sulfate (as described above) sutured into both uterine horns were bred

T1 sequence (P08001 40-338 limits assumed): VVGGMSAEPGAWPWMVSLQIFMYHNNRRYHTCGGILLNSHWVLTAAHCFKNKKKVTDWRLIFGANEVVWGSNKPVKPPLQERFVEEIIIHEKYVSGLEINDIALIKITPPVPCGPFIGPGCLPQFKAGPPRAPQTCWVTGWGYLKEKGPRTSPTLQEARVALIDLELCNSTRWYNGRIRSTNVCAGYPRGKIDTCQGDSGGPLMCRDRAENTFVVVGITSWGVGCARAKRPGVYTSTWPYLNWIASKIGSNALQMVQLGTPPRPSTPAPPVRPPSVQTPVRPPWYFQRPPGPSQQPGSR
T1 sequence (P08001 17-39 limits assumed): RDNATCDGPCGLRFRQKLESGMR

Take `CCCCCCCCCCCCCCOS(=O)(=O)[O-].[Na+]` [n-tetradecyl, sodium n-tetradecyl sulfate]: the figures for the LD50 in the data set on mice and with rats were 342 mg/kg and “greater than 3.5 g/kg”, respectively. In addition, the “Inhibition (units/mg.)” value in data set [1] (Conc. of Test Solution 1 Mg/ml) is given as 960,000 units/mg; in data set [1] (Conc. of Test Solution 10 Mg/ml), 14,200 units/mg. For the same compound, the “state of cumulus oophorus in presence of hyaluronidase” value in data set [2] is listed as “remains substantially intact”. Further, in [3], the “Embryos Horn (x ± S.D.)” value stood at 0. Moreover, the entries for the “Total No. of embryos” value in data set [3] and in data set [4] were 0 and 3, respectively. Besides, in data set [4], the “Embryos Per Animal (x + std. dev.)” value was 0.5 ± 1.2. Further, the classical spermicidal activity entry with sperm is recorded as “does not show classical spermicidal activity”. Besides, the “Amount of sodium n-tetradecyl sulfate released. (μg. per day)” value in the data set on female rabbits (after seven days) was 760 μg. per day and 470 μg. per day and 961 μg. per day and 277 μg. per day and 894 μg. per day; in the data set with female rabbits (after thirty-two days) it was 644 μg. per day and 522 μg. per day and 288 μg. per day. The “No. of Embryos (per animal)” value with female rabbits (bred after seven days) was 0 and 8 and 5; in the data set on female rabbits (bred after thirty-two days), 0 and 3. The pregnancies entry with rabbits is recorded as “without any pregnancies noted”.
